# US20240165112A1, “THERAPY FOR THE TREATMENT OF CANCER” (Bristol-Myers Squibb Company, priority 2022, published 2024)
# How the values were obtained:
# [1] = system: Eleven patient-derived tumor organoids; test: 3D clonogenic assay, summary over the organoid panel; type: cell-based, human; details: for median percent colony reduction relative to DMSO: 11 organoid cultures
# Experimental: Five tumor cell lines (4T1.2, A549, EMT6, NCI-H460, and HT29) were treated with a range of paclitaxel or 5-FU concentrations in the presence of dimethlylsulfoxide (DMSO), 5 μM Compound 1, or 20 μM Compound 1. Cells were imaged 4 days after treatment and percent confluence was assessed by image quantification. EC50 values for cell confluence were used to assess chemotherapy potency. Eleven patient-derived tumor organoids (MAXFTN449, MAXFTN2990, PAXF1657, PAXF2131, CXF1256, CXF2129, CXF2061, LXFE2478, LXFE690, LXFA677, LXFA644) were seeded in a 3D matrix and treated with a range of paclitaxel, 5-FU, SN38, Gemcitabine, oxaliplatin, and carboplatin concentrations in the presence of DMSO, 5 μM Compound 1, or 20 μM Compound 1. After 8 to 13 days in culture, colonies were stained, imaged, and counted. A dose response curve was generated for chemotherapy alone or chemotherapy in combination with 5 or 20 μM Compound 1. Combination activity was defined as a percentage of the area under the chemotherapy dose response curve (cAUC) for Compound 1 combination groups compared to the cAUC of chemotherapy alone.
# The clonogenic assay was carried out in a 96 well plate format using ultra low attachment plates. For each test, plates were prepared as follows: each test well contained a layer of semi-solid medium with tumor cells (50 μL), and a second layer of medium supernatant with or without test compound (100 μL). The cell layer consisted of […] to 12.5×10^3 tumor cells per well, which were seeded in 50 μL/well cell culture medium (IMDM, supplemented with 20% (v/v) fetal bovine serum, 50 μg/mL gentamicin, and 0.4% (w/v) agar). After 24 hours, the soft-agar layer was covered with 90 μL of the same culture medium without agar, and 10 μL of control medium or test compound after serial dilution in DMSO for the duration of the experiment (continuous exposure, 100 μL drug overlay).
# After 8 to 13 days in culture, colonies were stained, imaged, and counted.
# [2] = system: TNC, ACTA2, PAI-1 transcripts in normal human lung fibroblasts (NHLF); test: TGF-β-induced gene transcription, fibroblast activation markers (RT-PCR); type: cell-based
# Experimental: Normal human lung fibroblasts (NHLF, black bars) were treated with 10 ng/mL TGF-β after 1 hour pre-incubation with a range of Compound 1 concentrations, and cells were lysed 24 hours later. Indicated gene transcripts were assessed by RT-PCR relative to GAPDH. Data were normalized to expression after TGF-β treatment in the presence of only DMSO. Data are presented as mean of 3 biological replicates, and error bars indicate standard deviation. The graphs are representative of at least 2 independent experiments. *P<0.05; ** P<0.01, ***P<0.001; ****P<0.0001 by student's t-test. Abbreviations: ACTA2, smooth muscle actin; CAF, cancer associated fibroblasts; DMSO, dimethyl sulfoxide; GAPDH, glyceraldehyde-3-phosphate dehydrogenase; NHLF, normal lung human fibroblasts; PAI-1, plasminogen activator inhibitor 1; RNA, ribonucleic acid; RT-PCR, reverse transcription polymerase chain reaction; TGF-β, transforming growth factor beta; TNC, tenascin C.
# Cells were seeded (75,000 NHLF and lung CAF cells) into 12 well plates with RPMI+10% FBS and allowed to adhere overnight at 37° C., 5% CO2. After one day of serum starvation, cells were pre-treated for 1 hour with DMSO or Compound 1 at 30 μM, 10 μM, 3 μM, 1 μM, or 0.3 μM and then stimulated with 10 ng/mL TGF-β. The 24-hour Compound 1 treated samples were harvested for ribonucleic acid (RNA) extraction.
# Cells were directly lysed in Qiagen™ Buffer RLT Plus with 1% 2-Mercaptoethanol added. Total RNA from tumor samples and cell lines was isolated using Qiagen™ AllPrep® DNA/RNA 96 Kit according to manufacturer's protocol. Isolated RNA was analyzed with NanoDrop™ ONE Spectrophotometer for concentration. The RNA integrity was also analyzed on Agilent TapeStation 4200.
# Complimentary deoxyribonucleic acid (cDNA) was prepared by using Invitrogen™ SuperScript™ III First-Strand Synthesis SuperMix for qRT-PCR. Up to 1 μg of RNA was prepared according to manufacturer's protocol, using Applied Biosystems™ Veriti™ 96-well thermal cycler. The reverse transcription (RT) program used for cDNA synthesis: • 1. 25° C., 10 minutes • 2. 50° C., 30 minutes • 3. 85° C., 5 minutes • 4. Add E. Coli RNase H, 37° C., 20 minutes • 5. Hold at 4° C. Quantitative Reverse Transcription Polymerase Chain Reaction (qRT-PCR).
# The cDNA was diluted 1:3 fold in nuclease-free water for quantitative polymerase chain reaction (qPCR) setup. Human and mouse TaqMan™ assays for targeted genes were ordered through Applied Biosystems™. TaqMan™ assay selection was based on manufacturer's recommendation. The qRT-PCR was set up using Applied Biosystems™ TaqMan™ Fast Advanced Master Mix according to manufacturer's protocol. The qRT-PCR was run on QuantStudio™ 12 Flex with fast run mode: • 1. 95° C., 20 seconds • 2. 95° C., 1 second • 3. 60° C., 20 seconds • 4. Repeat steps 2-3, 39 times
# The qPCR data was analyzed, and all cycle threshold (Ct) values were normalized to glyceraldehyde-3-phosphate dehydrogenase (GAPDH) (ΔCt). Analysis was plotted and presented using GraphPad Prism (GraphPad, Version 8.4.1, San Diego, CA).
# The levels of phospho-c-Jun in NHLF and non-small cell lung CAF in response to TGF-β in the presence of DMSO or varying concentrations of Compound 1 were summarized in FIG. 7. Cells were treated with DMSO or Compound 1 for 1 hour prior to treatment with 10 ng/mL TGF-β for an additional 2 hours. Phospho-c-Jun levels were determined by western blot analysis and were normalized to DMSO treated samples. […] The relative expression of fibroblast activation markers in NHLF and lung CAF in response to TGF-β in the presence of DMSO or varying concentrations of Compound 1 were summarized in FIGS. 8A-8C and FIGS. 9A-9C. Cells were treated with DMSO or Compound 1 for 2 hours prior to treatment with 10 ng/mL TGF-β. The RNA expression was assessed 24 hours after TGF-β treatment.
# [3] = NHLF stimulated with TGFβ, 10 μM Compound 1
# [4] = NHLF, 30 μM Compound 1, 10 ng/mL TGF-β, 24 hours
structure (smiles),measurement,setting,value
"C[C@@H]1CC[C@@H](Nc2nc(NC(C)(C)C)ncc2C(N)=O)C[C@H]1O [Compound 1, 2-(tert-butylamino)-4-((1R,3R,4R)-3-hydroxy-4-methylcyclohexylamino)-pyrimidine-5-carboxamide]",organoid cultures with an average percent colony reduction greater than 20%,[1]; 5 μM Compound 1,8 out of 11
same,median percent colony reduction relative to DMSO,[1]; 5 μM Compound 1,39%
same,organoid cultures with an average percent colony reduction greater than 20%,[1]; 20 μM Compound 1,10 out of 11
same,median percent colony reduction relative to DMSO,[1]; 20 μM Compound 1,34%
same,ACTA2 reduced relative to DMSO,[2]; [3],4.1%
same,TNC reduced relative to DMSO,[2]; [3],66%
same,"TNC induction, reduction from peak activation to baseline","[2]; NHLF, 3 μM Compound 1, 10 ng/mL TGF-β, 24 hours",48%
same,"PAI-1 induction, reduction from peak activation to baseline","[2]; NHLF, 10 μM Compound 1, 10 ng/mL TGF-β, 24 hours",20%
same,"ACTA2 induction, reduction from peak activation to baseline",[2]; [4],95%
same,"PAI-1 induction, reduction from peak activation relative to baseline",[2]; [4],57%
same,TNC expression,[2]; [4],lower than samples that never received TGF-β
